Measurements: US20160214956A1, “NOVEL SOLUBLE GUANYLATE CYCLASE ACTIVATORS AND THEIR USE” (GLAXOSMITHKLINE INTELLECTUAL PROPERTY DEVELOPMENT LIMITED, priority 2013, published 2016)
Residue numbers refer to the chain shown, from its start. Where a name gives a salt, the structure may show the parent alone.

Tests used:
[1] = target: T1, soluble guanylate cyclase (sGC) (Rattus norvegicus, UniProt P20595); assay: Cellular assay, VASP phosphorylation in rat aortic smooth muscle cells with ODQ; assay type: cell-based; settings: phospho-VASP signal, primary rat aortic smooth muscle cells, 10 μM ODQ, 30 min incubation; 50% vs. Bmax; read-out: Cell assay pEC50 (converted)
T1 construct: endogenous in cells; host or cells: primary rat aortic smooth muscle cells
T1 sequence (P20595 1-619): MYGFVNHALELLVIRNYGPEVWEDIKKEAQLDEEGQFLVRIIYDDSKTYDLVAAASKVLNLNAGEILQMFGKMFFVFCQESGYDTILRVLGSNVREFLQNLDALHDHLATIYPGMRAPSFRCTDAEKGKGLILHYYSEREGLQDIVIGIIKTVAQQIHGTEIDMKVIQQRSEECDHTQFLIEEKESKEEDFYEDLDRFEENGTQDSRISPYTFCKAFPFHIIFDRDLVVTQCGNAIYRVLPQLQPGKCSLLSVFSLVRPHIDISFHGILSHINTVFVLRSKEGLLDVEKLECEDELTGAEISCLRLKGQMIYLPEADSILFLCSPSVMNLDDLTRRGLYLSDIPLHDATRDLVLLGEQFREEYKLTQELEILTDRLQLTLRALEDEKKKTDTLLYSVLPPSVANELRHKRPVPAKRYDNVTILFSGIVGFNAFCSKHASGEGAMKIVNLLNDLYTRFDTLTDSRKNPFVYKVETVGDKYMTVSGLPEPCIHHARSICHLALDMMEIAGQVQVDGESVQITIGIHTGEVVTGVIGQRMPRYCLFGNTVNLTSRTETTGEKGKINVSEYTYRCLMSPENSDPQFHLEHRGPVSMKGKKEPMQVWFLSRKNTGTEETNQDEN
T1 sequence (P19686 1-690 partner): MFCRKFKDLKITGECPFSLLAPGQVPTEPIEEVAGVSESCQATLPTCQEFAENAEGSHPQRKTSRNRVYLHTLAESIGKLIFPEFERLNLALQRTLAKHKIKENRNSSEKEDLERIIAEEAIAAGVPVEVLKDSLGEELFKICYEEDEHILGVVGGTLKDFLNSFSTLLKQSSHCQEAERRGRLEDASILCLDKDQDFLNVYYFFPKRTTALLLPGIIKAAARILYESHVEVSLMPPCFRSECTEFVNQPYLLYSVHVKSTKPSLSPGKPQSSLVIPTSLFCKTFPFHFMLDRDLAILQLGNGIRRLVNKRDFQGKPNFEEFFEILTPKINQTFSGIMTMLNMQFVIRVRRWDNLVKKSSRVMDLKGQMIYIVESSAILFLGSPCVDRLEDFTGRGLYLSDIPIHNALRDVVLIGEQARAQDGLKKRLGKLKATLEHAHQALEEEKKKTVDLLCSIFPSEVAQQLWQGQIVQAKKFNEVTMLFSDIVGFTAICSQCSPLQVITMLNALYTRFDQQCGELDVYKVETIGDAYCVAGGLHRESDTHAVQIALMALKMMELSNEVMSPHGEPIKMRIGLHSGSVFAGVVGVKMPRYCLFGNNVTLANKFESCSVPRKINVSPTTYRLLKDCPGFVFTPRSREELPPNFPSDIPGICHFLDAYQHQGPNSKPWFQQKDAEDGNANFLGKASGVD
Method: The activity of soluble guanylate cyclase (sGC) was tested in an assay based on measuring phosphorylation of the protein kinase G (PKG) substrate vasodilator-stimulated phosphoprotein (VASP) in rat aortic smooth muscle cells. […] Dimethylsulfoxide (DMSO) vehicle and varying concentrations of the compound to be tested were then added. Following a 30 min incubation at 37° C., media was aspirated and the cells were rinsed with phosphate-buffered saline (PBS) and fixed with 4% formaldehyde in PBS by incubating at room temperature for 20 min. Cells were then washed with PBS and permeabilized for 10 min using 0.1% triton X-100 in PBS. Following PBS rinsing, the cells were blocked for 90 min at room temperature with blocking buffer. The buffer was aspirated and the cells were treated overnight at 4° C. with primary antibody (pSer239-VASP, rabbit polyclonal Ab) diluted 1:500 in blocking buffer. Following three washes with 0.05% Tween 20, the cells were treated for 1 h at room temperature with a fluorescent labeled secondary antibody (IRDye® 800CW Donkey Anti-Rabbit IgG) diluted 1:2500 in blocking buffer with 0.05% Tween 20. Following two washes with PBS, infrared fluorescence was measured using an Odyssey Infrared Imaging System. The activity of a test compound was determined as the pEC50 value which is the concentration able to increase by 50% (vs. Bmax) the phospho-VASP fluorescent signal. Front. Pharmacol., 5 Jul. 2012|doi: 10.3389/fphar.2012.00128, Volume 3 July, 2012, Article number 128.

human sGC = target: T2, human sGC (Homo sapiens, UniProt Q02153); assay: sGC enzyme assay, fluorescence polarisation of labelled cGMP; assay type: biochemical; settings: human sGC 1 nM, FP assay; concentration able to increase by 5-fold basal cGMP
T2 sequence (Q02153 1-619): T1 sequence (P20595 1-619) with S171N, D205E, K247N, A299T, N615K, E618D, N619D
T2 sequence (Q02108 1-690 partner): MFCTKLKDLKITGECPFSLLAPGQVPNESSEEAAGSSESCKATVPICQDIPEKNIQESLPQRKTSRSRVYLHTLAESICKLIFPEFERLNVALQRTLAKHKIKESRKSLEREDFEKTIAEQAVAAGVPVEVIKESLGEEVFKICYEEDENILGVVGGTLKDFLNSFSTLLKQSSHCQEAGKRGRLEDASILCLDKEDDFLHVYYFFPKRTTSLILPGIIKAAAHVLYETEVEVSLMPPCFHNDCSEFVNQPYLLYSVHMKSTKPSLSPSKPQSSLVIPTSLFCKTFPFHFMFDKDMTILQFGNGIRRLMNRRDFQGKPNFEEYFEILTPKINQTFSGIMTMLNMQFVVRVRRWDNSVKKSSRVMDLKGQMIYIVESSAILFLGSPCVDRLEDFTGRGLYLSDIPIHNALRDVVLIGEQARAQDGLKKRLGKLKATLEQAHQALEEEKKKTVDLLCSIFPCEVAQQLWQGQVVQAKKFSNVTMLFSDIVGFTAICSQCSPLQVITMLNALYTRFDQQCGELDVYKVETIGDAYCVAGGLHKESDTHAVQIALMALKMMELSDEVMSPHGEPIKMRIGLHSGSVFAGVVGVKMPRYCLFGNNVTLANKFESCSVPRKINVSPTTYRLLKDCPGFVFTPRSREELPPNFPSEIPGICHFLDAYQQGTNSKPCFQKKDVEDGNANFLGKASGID
Method: The activity of soluble guanylate cyclase (sGC) was tested in an assay based on measuring the fluorescent polarisation (FP) signal of fluorescently labelled cGMP. FP increased on interaction with an anti-cGMP antibody as the motility of the molecule was reduced. Newly produced cGMP displaced the interaction giving rise to a decrease in polarisation and FP signal which was equated to enzyme activity. Compounds were incubated with human sGC, anti-cGMP antibody, the GTP substrate and fluorescently labelled cGMP. After a period of one hour the assay was stopped with the addition of EDTA and after a further hour the assay was read.
Human sGC was thawed and resuspended in assay buffer (100 mM TRIS, 10 mM MgCl2, 0.2 mM Tween 20, pH7.4, containing 1:100 dilution of sheep anti-cGMP) to give final concentration of 1 nM in the well. A substrate solution was prepared containing GTP and 8-fluo-cGMP in de-ionized water to a final concentration of 25 μM and 50 nM respectively. Assay plates containing 5 μL of various test compounds and of a standard agonist (50 μM-50 nM) in 1% DMSO as 6 point, four fold dilutions across a 96 well plate were used in the assay. The plate also contained 6 wells of DMSO (1%) to produce high control and a cGMP standard curve (14 nM to 10 μM) to convert FP data to cGMP concentration. 25 μL of enzyme mix and 20 μl of substrate mix described above were added to each well of the plate. Samples were mixed on an orbital shaker and then incubated at room temperature for 1 hour. After this incubation period 5 μl of 0.5M EDTA was added to all wells and the plates were incubated for a further hour at room temperature prior to reading the FP signal in an appropriate reader. For data handling FP data were converted to cGMP concentrations and then fitted using ActivityBase software. The activity of a test compound was determined as the pEC500 value which is the concentration able to increase by 5-fold basal cGMP.

SMILES | EC50 [1] | sGC pEC500 (human sGC)
Cc1cc(OCCCC(F)(F)F)ccc1CCc1ccc(F)cc1-c1cccc(-n2ncc(C(=O)O)c2C(F)(F)F)n1 [Example 13, 1-(6-(5-Fluoro-2-(2-methyl-4-(4,4,4-trifluorobutoxy)phenethyl)phenyl)pyridin-2-yl)-5-(trifluoromethyl)-1H-pyrazole-4-carboxylic acid] | 1.26 nM | 
N#CCCCOc1ccc(COc2ccccc2-c2cccc(-n3ncc(C(=O)O)c3C(F)(F)F)n2)cc1 [Example 8, 1-(6-(2-((4-(3-cyanopropoxy)benzyl)oxy)phenyl)pyridin-2-yl)-5-(trifluoromethyl)-1H-pyrazole-4-carboxylic acid] |  | 7.28
Cc1cc(OCCCn2cccn2)ccc1CCc1ccc(F)cc1-c1cccc(-n2ncc(C(=O)O)c2C(F)(F)F)n1 [Example 14, 1-(6-(2-(4-(3-(1H-pyrazol-1-yl)propoxy)-2-methylphenethyl)-5-fluorophenyl)pyridin-2-yl)-5-(trifluoromethyl)-1H-pyrazole-4-carboxylic acid] | 1.58 nM | 
Cc1cc(OCCCC(F)(F)F)ccc1CCc1ccccc1-c1cccc(-n2ncc(C(=O)OC(C)C)c2C(F)(F)F)n1 [Example 22, Isopropyl 1-(6-(2-(2-methyl-4-(4,4,4-trifluorobutoxy)phenethyl)phenyl)pyridin-2-yl)-5-(trifluoromethyl)-1H-pyrazole-4-carboxylate] | 1260 nM | 
CCOC(=O)c1cnn(-c2cccc(-c3ccccc3CCc3ccc(OCCCC(F)(F)F)cc3C)n2)c1C(F)(F)F [Example 19, Ethyl 1-(6-(2-(2-methyl-4-(4,4,4-trifluorobutoxy)phenethyl)phenyl)pyridin-2-yl)-5-(trifluoromethyl)-1H-pyrazole-4-carboxylate] | 251 nM | 
Cc1cc(OCCCC(F)(F)F)ccc1CCc1ccccc1-c1cccc(-n2ncc(C(=O)O)c2C(F)(F)F)n1 [Example 21, 1-(6-(2-(2-methyl-4-(4,4,4-trifluorobutoxy)phenethyl)phenyl)pyridin-2-yl)-5-(trifluoromethyl)-1H-pyrazole-4-carboxylic acid, sodium salt] | 7.94 nM | 

Further lines, results first:

EC50 [1] | sGC pEC500 (human sGC) | SMILES
6.31 nM |  | COc1cnn(CCCOc2ccc(CCc3ccc(F)cc3-c3cccc(-n4ncc(C(=O)O)c4C(F)(F)F)n3)c(C)c2)c1 [Example 16, 1-(6-(5-Fluoro-2-(4-(3-(4-methoxy-1H-pyrazol-1-yl)propoxy)-2-methylphenethyl)phenyl)pyridin-2-yl)-5-(trifluoromethyl)-1H-pyrazole-4-carboxylic acid, sodium salt]
39.8 nM |  | Cc1cc(OCCCn2cc(C#N)cn2)ccc1CCc1ccc(F)cc1-c1cccc(-n2ncc(C(=O)O)c2C(F)(F)F)n1 [Example 15, 1-(6-(2-(4-(3-(4-cyano-1H-pyrazol-1-yl)propoxy)-2-methylphenethyl)-5-fluorophenyl)pyridin-2-yl)-5-(trifluoromethyl)-1H-pyrazole-4-carboxylic acid, sodium salt]
7.94 nM |  | Cc1cc(OCCCn2ccc(C#N)n2)ccc1CCc1ccc(F)cc1-c1cccc(-n2ncc(C(=O)O)c2C(F)(F)F)n1 [Example 18, 1-(6-(2-(4-(3-(3-cyano-1H-pyrazol-1-yl)propoxy)-2-methylphenethyl)-5-fluorophenyl)pyridin-2-yl)-5-(trifluoromethyl)-1H-pyrazole-4-carboxylic acid, sodium salt]
20 nM |  | Cc1cc(OCCCn2cncn2)ccc1CCc1ccc(F)cc1-c1cccc(-n2ncc(C(=O)O)c2C(F)(F)F)n1 [Example 17, 1-(6-(2-(4-(3-(1H-1,2,4-triazol-1-yl)propoxy)-2-methylphenethyl)-5-fluorophenyl)pyridin-2-yl)-5-(trifluoromethyl)-1H-pyrazole-4-carboxylic acid, sodium salt]
